The values that follow come from publication PMC8395040 (International Journal of Molecular Sciences, 2021).

Like-named read-outs stand apart in the source and are kept apart here.

Data set [1] relates to HCT116. Briefly: MTT cytotoxicity assay, HCT116. In kind it is cell-based. The following applies: Homo sapiens; for cytotoxicity at 50 µM: read-out: % Cytotoxicity (50 µM) HCT116; for IC50: 0.05–50 µM. Here is the method: (§1) Cytotoxicity assays were performed by using the MTT reduction method as described previously. Briefly, cancer cell lines were plated in flat-bottom 96-well plates at a cell concentration of 5 × 10^3 cells/well for the fastest growing lines, such as HEK293 and HT29 cells and 1 × 10^4 cells/well for more slowly growing lines, such as HCT116, H1975, BxPC-3, AsPC-1, B16-F10 and DAOY. Then, cells were incubated with the synthesised compounds at different concentrations (from 0.05 to 50 µM) in 200 µL with 10% FBS in RPMI 1640 or DMEM F12 culture medium at 37 °C for 72 h. Later, 10 µL of MTT were added at a final concentration of 0.5 mg/mL, incubated at 37 °C for 4 h, and then solubilised with 10% sodium dodecyl sulphate (SDS) in 0.1 mM HCl and incubated overnight at 37 °C. Formazan formation was measured at 570 nm in a multiwell plate reader (Cytation 5, Biotek Instruments, Winooski, VT, USA). Three independent biological replicates were performed.

Data set [2] deals with HT29. Briefly: MTT cytotoxicity assay, HT29. In kind it is cell-based. The following applies: Homo sapiens; for cytotoxicity at 50 µM: read-out: % Cytotoxicity (50 µM) HT29; for IC50: 0.05–50 µM. Here is the method:
as §1

The subject of data set [3] is Daoy. Nature of the data set: MTT cytotoxicity assay, Daoy. It counts as cell-based, human. The following applies: Homo sapiens, Daoy, 72 h; for cytotoxicity at 50 µM: read-out: % Cytotoxicity (50 µM) DAOY; for IC50: 0.05–50 µM.
For data set [4], the system named is H1975. Briefly: MTT cytotoxicity assay, H1975. It counts as cell-based. The following applies: Homo sapiens; for cytotoxicity at 50 µM: read-out: % Cytotoxicity (50 µM) H1975; for IC50: 0.05–50 µM. As to the method: as §1
The test system of data set [5] is AsPC-1. Briefly: MTT cytotoxicity assay, AsPC-1. It counts as cell-based. The following applies: Homo sapiens, ASPC1, 72 h, 0.05–50 µM. Here is the method:
as §1

Data set [6] concerns BxPC-3. Nature of the data set: MTT cytotoxicity assay, BxPC-3. In kind it is cell-based. The following applies: Homo sapiens, 72 h, 0.05–50 µM. As to the method: as §1
A short description of data set [7]: MTT cytotoxicity assay, HEK293 control cells. In kind it is cell-based, human. The following applies: human, HEK293 cells; 50 µM, 72 h, MTT.
The subject of data set [8] is HEK293. Nature of the data set: MTT cytotoxicity assay, HEK293 control cells. In kind it is cell-based, human. The following applies: Homo sapiens, HEK293; MTT, 72 h, non-cancer cell line.
In data set [9] the test system is tumour cell lines. Briefly: MTT cytotoxicity assay, summary over the tumour cell line panel. It counts as cell-based, human. The following applies: 50 µM, 72 h, MTT, tumour cell lines tested. As to the method:
as §1

Data set [10] addresses GLI-luciferase reporter. Further details: method as in PMID 24923765. The following applies: cited from earlier work.

As for `CCCCCn1cnc2c(-c3ccc(OC(F)(F)F)cc3)nc(N3CCN(c4ccncc4)CC3)nc21` [Compound 4r, 9-Pentyl-2-(4-(pyridin-4-yl)piperazin-1-yl)-6-(4-(trifluoromethoxy)phenyl)-9H-purine], the melting point was in the range of 109 to 110 °C. For the same compound, the cytotoxicity at 50 µM in [1] (HCT-116, 50 µM, 72 h, MTT) stood at 81 ± 0.8%. The same compound had an IC50 in data set [1] (HCT-116, MTT, 72 h) of 19 ± 0.8 µM. The cytotoxicity at 50 µM in [2] (HT-29, 50 µM, 72 h, MTT) was less than 50%. In data set [2] (HT-29, MTT, 72 h), this compound displayed an IC50 of more than 50 µM. The cytotoxicity at 50 µM in data set [3] (50 µM, MTT) came to 92 ± 0.4%. In [4] (NCI-H1975, 50 µM, 72 h, MTT), the cytotoxicity at 50 µM is less than 50%. It took 7.7 ± 0.4 µM to reach half-maximal inhibition in [4] (NCI-H1975, MTT, 72 h) (IC50). The same compound registered an IC50 in data set [5] of more than 50 µM. The compound further displayed an IC50 in [6] of more than 50 µM. In addition, the cytotoxicity at 72 h, 50 µM in data set [7] was less than 50%. For the same compound, in data set [8], the IC50 is more than 50 µM. The “cytotoxicity in tumour cell lines” value in [9] is “more than 80%”.

Regarding `Cc1cccc(C)c1NC(=O)c1ccc(Nc2nc(-c3ccc(OC(F)(F)F)cc3)c3ncn(C)c3n2)cc1` [III], in data set [10], the “IC50 in GLI-luciferase reporter assays” value is “nanomolar range”.

Regarding `CCCCCCn1cnc2c(-c3ccc(OC(F)(F)F)cc3)nc(NC3CCCC3)nc21` [Compound 4c, N-cyclopentyl-9-hexyl-6-(4-(trifluoromethoxy)phenyl)-9H-purin-2-amine], the melting point was 58 to 60 °C. Further, in data set [1] (HCT-116, 72 h), the cytotoxicity at 50 µM is less than 50%. Further, the half-inhibitory concentration (IC50) in data set [1] (HCT-116, MTT, 72 h) is more than 50 µM. Also, in [2] (HT-29, 72 h), the cytotoxicity at 50 µM was less than 50%. The IC50 in data set [2] (HT-29, MTT, 72 h) was more than 50 µM. Moreover, the IC50 in data set [3] (MTT) was found to be 31 ± 0.9 µM. In data set [3], the cytotoxicity at 50 µM was found to be 69 ± 0.9%. In addition, the cytotoxicity at 50 µM in data set [4] (NCI-H1975, 72 h) was found to be 19 ± 0.8%. The same compound showed an IC50 in data set [4] (NCI-H1975, MTT, 72 h) of 19 ± 0.8 µM. The compound further returned an IC50 in data set [5] of more than 50 µM. Besides, the IC50 in [6] was more than 50 µM. In [7], the cytotoxicity at 72 h, 50 µM was less than 50%. The compound further yielded a half-inhibitory concentration (IC50) in data set [8] of more than 50 µM.

As for `CCCCn1cnc2c(-c3ccc(OC(F)(F)F)cc3)nc(NC3CCCC3)nc21` [Compound 4a, 9-Butyl-N-cyclopentyl-6-(4-(trifluoromethoxy)phenyl)-9H-purin-2-amine], the melting point was in the range of 93 to 95 °C. Further, the cytotoxicity at 50 µM in data set [1] (HCT-116, 50 µM, 72 h, MTT) worked out at 68 ± 0.3%. Also, 32 ± 0.3 µM corresponded to half-maximal inhibition in data set [1] (HCT-116, MTT, 72 h) (IC50). Besides, in [2] (HT-29, 50 µM, 72 h, MTT), the cytotoxicity at 50 µM was less than 50%. In data set [2] (HT-29, MTT, 72 h), this compound returned an IC50 of more than 50 µM. The compound further registered an IC50 in data set [3] (MTT) of 18 ± 0.2 µM. The cytotoxicity at 50 µM in data set [3] (50 µM, MTT) came out at 82 ± 6.2%. Also, the cytotoxicity at 50 µM in [4] (NCI-H1975, 50 µM, 72 h, MTT) was 66 ± 0.9%. Further, in data set [4] (NCI-H1975, MTT, 72 h), the IC50 was found to be 34 ± 0.9 µM. In data set [5], this compound registered an IC50 of 20.1 ± 0.3 µM. This compound returned an IC50 in data set [6] of more than 50 µM. In addition, in data set [7], the cytotoxicity at 72 h, 50 µM was less than 50%. This compound returned an IC50 in [8] of more than 50 µM.

In turn, `CCCCCn1cnc2c(-c3ccc(OC(F)(F)F)cc3)nc(NCC3CCCCC3)nc21` [Compound 4h, N-(cyclohexylmethyl)-9-pentyl-6-(4-(trifluoromethoxy)phenyl)-9H-purin-2-amine] yielded a melting point of 78 to 79 °C. Moreover, the cytotoxicity at 50 µM in [1] (HCT-116, 72 h) was less than 50%. Also, the IC50 in [1] (HCT-116, MTT, 72 h) is more than 50 µM. For the same compound, the cytotoxicity at 50 µM in data set [2] (HT-29, 72 h) was less than 50%. The IC50 in data set [2] (HT-29, MTT, 72 h) was more than 50 µM. The compound also had an IC50 in data set [3] (MTT) of 19 ± 1.1 µM. The cytotoxicity at 50 µM in data set [3] came out at 81 ± 1.1%. Moreover, the cytotoxicity at 50 µM in data set [4] (NCI-H1975, 72 h) was found to be 61 ± 1.2%. This compound also gave an IC50 in data set [4] (NCI-H1975, MTT, 72 h) of 39 ± 1.2 µM. The IC50 in data set [5] was more than 50 µM. For the same compound, in data set [6], the IC50 was more than 50 µM. Besides, in data set [7], the cytotoxicity at 72 h, 50 µM was less than 50%. In data set [8], this compound returned an IC50 of more than 50 µM.

As for `Cc1ccc(CN2CCOCC2)cc1NC(=O)c1ccc(Nc2nc(-c3ccc(OC(F)(F)F)cc3)c3ncn(C)c3n2)cc1` [IV], the “IC50 in GLI-luciferase reporter assays” value in [10] is on record as “nanomolar range”.

`CCCCCn1cnc2c(-c3ccc(OC(F)(F)F)cc3)nc(NC3CCCCC3)nc21` [Compound 4e, N-cyclohexyl-9-pentyl-6-(4-(trifluoromethoxy)phenyl)-9H-purin-2-amine] returned a melting point of 108 to 110 °C. Moreover, the cytotoxicity at 50 µM in data set [1] (HCT-116, 72 h) was less than 50%. Besides, in data set [1] (HCT-116, MTT, 72 h), the IC50 is more than 50 µM. For the same compound, in [2] (HT-29, 72 h), the cytotoxicity at 50 µM was less than 50%. In data set [2] (HT-29, MTT, 72 h), this compound yielded a half-inhibitory concentration (IC50) of more than 50 µM. In addition, the half-inhibitory concentration (IC50) in [3] (MTT) is more than 50 µM. Further, the cytotoxicity at 50 µM in data set [3] is less than 50%. For the same compound, the cytotoxicity at 50 µM in data set [4] (NCI-H1975, 72 h) is less than 50%. Further, the IC50 in data set [4] (NCI-H1975, MTT, 72 h) amounted to 23 ± 0.3 µM. In data set [5], this compound gave an IC50 of more than 50 µM. Also, the IC50 in data set [6] is more than 50 µM. In addition, the cytotoxicity at 72 h, 50 µM in data set [7] was less than 50%. In addition, in data set [8], the IC50 is more than 50 µM.
